{"source": "patent US20050222110A1", "about": "“Use of loteprednol etabonate for the treatment of dry eye” (priority 2004, published 2005)", "key": {"[1]": {"experiment": "Clinical trial in KCS patients: intraocular pressure", "type": "in vivo, human", "conditions": "one month of therapy; mean IOP and individual patients", "description": "(§1) A randomized, double-masked, placebo-controlled, multicenter, pilot study was conducted in compliance with ICH Good Clinical Practice and the Declaration of Helsinki. Approval was obtained from an Institutional Review Board for each study site before initiating the study. Written informed consent was obtained from all patients before any study specific investigations were performed.\n(§2) Patients were randomly assigned to receive either Lotemax® Bausch and Lomb Inc. Rochester N.Y., or placebo four times a day. Lotemax® (loteprednol etabonate ophthalmic suspension, 0.5%) was supplied in 7.5 mL (5.0 mL fill) white, low density polyethylene dropper bottles with white caps for masking purposes. Placebo (the vehicle of Lotemax®) was supplied in identical bottles. Preservative Free Moisture Eyes™ Lubricant Eye Drops (Bausch & Lomb) were supplied in unit dose containers.\n(§3) Safety was assessed by fundoscopy, lens examination and biomicroscopy, by tests of visual acuity and intraocular pressure, and by monitoring adverse events and changes in symptomatology. Adverse events were evaluated by the investigator as to severity (mild, moderate, severe) and relationship of the event to the study drug (probable, possible, unlikely, or unknown)."}, "[2]": {"conditions": "0.2%; up to 3 years; 265 patients; allergic conjunctivitis; cited from earlier work"}, "[3]": {"tested_on": "keratoconjunctivitis sicca (KCS) in patients with delayed tear clearance", "experiment": "Clinical trial in KCS patients: corneal fluorescein staining score", "type": "in vivo, human", "conditions": "subset with more severe clinical inflammatory signs at entry", "description": "as §1\nIn addition, they were required to meet the following criteria in at least one eye: • 1. delayed tear clearance defined by a standardized visual scale score ≧3^15 • 2. at least one symptom >30 mm on the visual analog scale (VAS) • 3. composite corneal staining score >3\nPatients were randomly assigned to receive either Lotemax® Bausch and Lomb Inc. Rochester N.Y., or placebo four times a day. […]\nPatients attended for 5 visits. […] The fluorescence was graded between 0 and 6 using a standard color comparison scale. […] The corneal staining was evaluated 5 minutes after the instillation of the 2% fluorescein, viewing the cornea through a slit lamp with blue light and a No. 11 Wratten filter (See Table 2 below).\nAs is traditional for studies of this kind, two primary variables were defined representing subjective evaluation by the patient and objective evaluation based on the clinical examination findings. […] Each area was scored according to the corneal staining grading scale (Table 2 above). […]"}, "[4]": {"experiment": "Clinical trial in KCS patients: adverse events and toxicity", "type": "in vivo, human", "conditions": "following one month of therapy", "description": "as §1, §2, §3"}}}
{"smiles": "CCOC(=O)O[C@]1(C(=O)OCCl)CC[C@H]2[C@@H]3CCC4=CC(=O)C=C[C@]4(C)[C@H]3[C@@H](O)C[C@@]21C", "note": "[loteprednol, (11β,17α),-17-[(Ethoxycarbonyl)oxy]-11-hydroxy-3-oxoandrosta-1,4-diene-17-carboxylic acid chloromethyl ester]", "values": [{"measurement": "Elevation of IOP", "setting": "[1]", "result": "neither elevation of the mean IOP nor any individual with a clinically important elevation of the IOP"}, {"measurement": "Cataract formation", "setting": "[2]", "result": "no cataract formation was observed"}, {"measurement": "Mean intraocular pressure compared to pretreatment values", "setting": "[2]", "result": "not different from baseline"}, {"measurement": "Central corneal fluorescein staining, improvement", "setting": "[3]; four weeks", "result": "~20", "unit": "%"}, {"measurement": "Central corneal fluorescein staining, improvement", "setting": "[3]; two weeks", "result": "approximately 30%"}, {"measurement": "Toxicity", "setting": "[4]", "result": "complete lack of toxicity"}]}
